The values below come from PubChem BioAssay AID200 (DTP/NCI, 2004).

The test deals with B6C3F1 mice, B16 melanoma ip, median survival T/C. Description: NCI In Vivo Anticancer Drug Screen. Data for tumor model B16 Melanoma (intraperitoneal) in B6C3F1 mice. The following applies: endpoint: median survival time, higher = longer survival. The method, boiled down:
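Antitumor effect was judged in mice with transplanted tumors by dividing the treated group's survival measure by that of vehicle controls.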

[1] abbreviates: dose: 25.0 mg/kg/injection, schedule: Q01DX009 (ip), vehicle: saline.
The mark [2] stands for this setting: dose: 50.0 mg/kg/injection, schedule: Q01DX009 (ip), vehicle: saline.
Where [3] appears, read: dose: 100.0 mg/kg/injection, schedule: Q01DX009 (ip), vehicle: saline.
[4] abbreviates: dose: 200.0 mg/kg/injection, schedule: Q01DX009 (ip), vehicle: saline.
Setting [5] is: dose: 400.0 mg/kg/injection, schedule: Q01DX009 (ip), vehicle: saline.
[6] abbreviates: dose: 75.0 mg/kg/injection, schedule: Q01DX009 (ip), vehicle: saline.
[7] abbreviates: dose: 150.0 mg/kg/injection, schedule: Q01DX009 (ip), vehicle: saline.
Setting [8] is: dose: 300.0 mg/kg/injection, schedule: Q01DX009 (ip), vehicle: saline.
The mark [9] stands for this setting: dose: 12.5 mg/kg/injection, schedule: Q01DX009 (ip), vehicle: Klucel (hydroxypropylcellulose) (HPC).
Setting [10] is: dose: 25.0 mg/kg/injection, schedule: Q01DX009 (ip), vehicle: Klucel (hydroxypropylcellulose) (HPC).
The mark [11] stands for this setting: dose: 50.0 mg/kg/injection, schedule: Q01DX009 (ip), vehicle: Klucel (hydroxypropylcellulose) (HPC).
Setting [12] is: dose: 100.0 mg/kg/injection, schedule: Q01DX009 (ip), vehicle: Klucel (hydroxypropylcellulose) (HPC).
[13] abbreviates: dose: 200.0 mg/kg/injection, schedule: Q01DX009 (ip), vehicle: Klucel (hydroxypropylcellulose) (HPC).
Where [14] appears, read: dose: 12.5 mg/kg/injection, schedule: Q01DX009 (ip), vehicle: saline with Tween-80.
The mark [15] stands for this setting: dose: 100.0 mg/kg/injection, schedule: Q01DX009 (ip), vehicle: saline with Tween-80.

Where “and” joins values, the source holds several entries; their conditions need not be identical. Equal entries are not always repeated. Inconclusive results and toxic doses are left out.

As to `COc1cccc2c1C(=O)c1c(O)c3c(c(O)c1C2=O)C[C@@](O)(C(C)=O)C[C@@H]3OC1CC(N(Cc2ccccc2)Cc2ccccc2)C(O)C(C)O1` (some centres not stated), the T/C (dose: 1.5 mg/kg/injection, schedule: Q01DX009 (ip), vehicle: saline with Tween-80) is 100 % of control; the T/C (dose: 1.5 mg/kg/injection, schedule: Q01DX009 (ip), vehicle: water) is 112 % of control; the T/C (dose: 3.0 mg/kg/injection, schedule: Q01DX009 (ip), vehicle: saline with Tween-80) is 111 % of control; the T/C (dose: 3.0 mg/kg/injection, schedule: Q01DX009 (ip), vehicle: water) is 116 % of control; the T/C (dose: 12.0 mg/kg/injection, schedule: Q01DX009 (ip), vehicle: saline with Tween-80) was 156 % of control; the T/C (dose: 12.0 mg/kg/injection, schedule: Q01DX009 (ip), vehicle: water) is 151 % of control.

Consider `CC(=O)Oc1c(C)[nH]ccc1=O`, for which the T/C under setting [1] is 93 % of control and 104 % of control; the T/C under setting [2] is 108 % of control and 105 % of control; the T/C under setting [3] is 115 % of control and 94 % of control; the T/C under setting [4] is 94 % of control and 106 % of control.

With `CCOC(=O)C(CC(C)C)NC(=O)C(Cc1ccc(N(CCCl)CCCl)cc1)NC(C)=O` (configuration not stated), the T/C by setting is: (dose: 8.0 mg/kg/injection, schedule: Q01DX009 (ip), vehicle: saline with Tween-80) 105 % of control; (dose: 16.0 mg/kg/injection, schedule: Q01DX009 (ip), vehicle: saline with Tween-80) 102 % of control; (dose: 64.0 mg/kg/injection, schedule: Q01DX009 (ip), vehicle: saline with Tween-80) 160 % of control.

Consider `NC(CCC(=O)Nc1ccc(O)cc1)C(=O)O` (configuration not stated), for which the T/C was 117 % of control under setting [2], 120 % of control under setting [3], 103 % of control under setting [4] and 124 % of control under setting [5].

On to `C[CH2][Pb]([CH2]C)([CH2]C)[O]C(=O)COc1ccccc1`, for which the T/C is 94 % of control (dose: 0.38 mg/kg/injection, schedule: Q01DX009 (ip), vehicle: Klucel (hydroxypropylcellulose) (HPC)); 105 % of control (dose: 0.75 mg/kg/injection, schedule: Q01DX009 (ip), vehicle: Klucel (hydroxypropylcellulose) (HPC)); 101 % of control (dose: 1.5 mg/kg/injection, schedule: Q01DX009 (ip), vehicle: Klucel (hydroxypropylcellulose) (HPC)); 91 % of control (dose: 3.0 mg/kg/injection, schedule: Q01DX009 (ip), vehicle: Klucel (hydroxypropylcellulose) (HPC)); 97 % of control (dose: 6.0 mg/kg/injection, schedule: Q01DX009 (ip), vehicle: Klucel (hydroxypropylcellulose) (HPC)).

Take `CN1c2c(nc(N)[nH]c2=O)NCC1CCNc1ccc(C(=O)NC(CCC(=O)O)C(=O)O)cc1` (configuration not stated): the T/C is 105 % of control (dose: 50.0 mg/kg/injection, schedule: Q01DX009 (ip), vehicle: sodium bicarbonate) and 114 % of control (dose: 100.0 mg/kg/injection, schedule: Q01DX009 (ip), vehicle: sodium bicarbonate).

For `CCOC(=O)N1CCN(CCCCCOc2ccc(CC(C)(C)C)cc2Cl)CC1`, the T/C (dose: 3.13 mg/kg/injection, schedule: Q01DX009 (ip), vehicle: saline) was 109 % of control; the T/C (dose: 6.25 mg/kg/injection, schedule: Q01DX009 (ip), vehicle: saline) is 121 % of control; the T/C (dose: 12.5 mg/kg/injection, schedule: Q01DX009 (ip), vehicle: saline) is 112 % of control; the T/C under setting [1] was 101 % of control.

For `Nc1ncc(S(=O)(=O)c2ccc([N+](=O)[O-])cc2)c(N)n1`, the T/C by setting is: under setting [6], 100 % of control; under setting [7], 102 % of control; under setting [8], 87 % of control.

Turning to `NC(N)=N/N=C/c1ccc(Cl)cc1Cl`, the T/C is, setting by setting: under setting [1], 100 % of control; under setting [2], 89 % of control; under setting [3], 95 % of control.

Take `COc1cccc2c1C(=O)c1c(O)c3c(c(O)c1C2=O)C[C@@](O)(C(C)=O)C[C@@H]3OC1CC(N2CCCCC2)C(O)C(C)O1` (some centres not stated): the T/C (dose: 0.78 mg/kg/injection, schedule: Q01DX001 (ip), vehicle: water) is 105 % of control; the T/C (dose: 1.56 mg/kg/injection, schedule: Q01DX001 (ip), vehicle: water) was 115 % of control and 121 % of control; the T/C (dose: 3.12 mg/kg/injection, schedule: Q01DX001 (ip), vehicle: water) is 116 % of control and 121 % of control.

As for `O=C(O)CCCCCCCC(=O)O`, the T/C is, setting by setting: (dose: 12.5 mg/kg/injection, schedule: Q01DX009 (ip), vehicle: distilled water + Tween-80) 91 % of control; (dose: 25.0 mg/kg/injection, schedule: Q01DX009 (ip), vehicle: distilled water + Tween-80) 101 % of control; (dose: 50.0 mg/kg/injection, schedule: Q01DX009 (ip), vehicle: distilled water + Tween-80) 101 % of control; (dose: 100.0 mg/kg/injection, schedule: Q01DX009 (ip), vehicle: distilled water + Tween-80) 91 % of control.

For the compound `COc1ccc(C(Nc2ccccc2)C(=O)c2ccccc2)cc1` (configuration not stated), the T/C by setting is: (dose: 6.25 mg/kg/injection, schedule: Q01DX009 (ip), vehicle: Klucel (hydroxypropylcellulose) (HPC)) 102 % of control; under setting [9], 96 % of control; under setting [10], 96 % of control.

For `CC(=O)[C@]1(O)Cc2c(O)c3c(c(O)c2[C@@H](OC2CC(N)C(O)C(C)O2)C1)C(=O)c1c(O)cccc1C3=O` (some centres not stated), the T/C (dose: 0.38 mg/kg/injection, schedule: Q01DX001 (ip), vehicle: water) was 150 % of control.

Take `Oc1ccc(OCc2ccccc2)cc1`: the T/C under setting [9] was 107 % of control and 100 % of control; the T/C under setting [10] is 91 % of control and 102 % of control; the T/C under setting [11] was 90 % of control and 96 % of control; the T/C under setting [12] is 100 % of control and 107 % of control; the T/C under setting [13] was 98 % of control [middle of 4 runs]; the T/C (dose: 400.0 mg/kg/injection, schedule: Q01DX009 (ip), vehicle: Klucel (hydroxypropylcellulose) (HPC)) was 102 % of control and 94 % of control.

Consider `CSCCC(NC(=O)c1ccccc1)C(=O)O` (configuration not stated), for which the T/C under setting [3] is 93 % of control.

Take `COCCOC`: the T/C under setting [3] was 98 % of control, the T/C under setting [4] was 94 % of control and the T/C under setting [5] was 96 % of control.

With `O=c1nc(-c2ccco2)sc(=O)[nH]1`, the T/C runs as follows: under setting [10], 95 % of control; under setting [11], 99 % of control; under setting [12], 118 % of control; under setting [13], 112 % of control.

Take `Cn1cnc([N+](=O)[O-])c1Sc1nc(N)nc2c1ncn2C1OC(CO)C(O)C1O` (configuration not stated): the T/C is 116 % of control (dose: 3.12 mg/kg/injection, schedule: Q01DX009 (ip), vehicle: suspension in saline); 111 % of control (dose: 3.13 mg/kg/injection, schedule: Q01DX009 (ip), vehicle: saline with Tween-80); 97 % of control (dose: 6.25 mg/kg/injection, schedule: Q01DX009 (ip), vehicle: saline with Tween-80); 117 % of control (dose: 6.25 mg/kg/injection, schedule: Q01DX009 (ip), vehicle: suspension in saline); 94 % of control under setting [14]; 93 % of control (dose: 12.5 mg/kg/injection, schedule: Q01DX009 (ip), vehicle: suspension in saline).

Consider `O=C1N=C(Oc2ccccc2)SC1=O`, for which the T/C by setting is: under setting [14], 110 % of control; (dose: 25.0 mg/kg/injection, schedule: Q01DX009 (ip), vehicle: saline with Tween-80) 98 % of control; (dose: 50.0 mg/kg/injection, schedule: Q01DX009 (ip), vehicle: saline with Tween-80) 103 % of control; under setting [15], 92 % of control.

As for `O=C(O)C(Cc1ccc(O)cc1)NS(=O)(=O)Cc1ccccc1` (configuration not stated), the T/C is, setting by setting: under setting [15], 106 % of control; (dose: 200.0 mg/kg/injection, schedule: Q01DX009 (ip), vehicle: saline with Tween-80) 101 % of control; (dose: 400.0 mg/kg/injection, schedule: Q01DX009 (ip), vehicle: saline with Tween-80) 100 % of control.

Consider `OCC(O)C(O)C(O)C(O)CO` (configuration not stated), for which the T/C under setting [6] was 107 % of control; the T/C under setting [7] is 104 % of control; the T/C under setting [8] is 112 % of control; the T/C (dose: 600.0 mg/kg/injection, schedule: Q01DX009 (ip), vehicle: saline) is 112 % of control; the T/C (dose: 1200.0 mg/kg/injection, schedule: Q01DX009 (ip), vehicle: saline) was 98 % of control.
